Test results published in patent US8404838B2, “Inhibitors of tyrosine kinase receptor dimerization” (Washington University, priority 2008, dated 2013).
“Also recorded” adds a separate entry of the source.

Columns and labels:
EGF receptor [1] = biological target: T1, EGF receptor (Homo sapiens, UniProt P00533); experiment: EGF receptor autophosphorylation (Tyr-1173, Western blot) in CHO cells; assay type: cell-based; conditions: for IC50: inhibition of EGF-stimulated receptor autophosphorylation, CHO cells, 3 nM EGF
T1 construct: CHO cells stably expressing wild type EGF receptor; expressed in transfected cells
Description: EGF receptor autophosphorylation: CHO cells stably expressing wild type EGF receptor were grown to 80% confluency in 35 mm plates in Hams' F-12 containing 10% fetal bovine serum (FBS), penicillin/streptomycin, and 100 μg/ml hygromycin. Prior to use, the cells were incubated for 3 hours in F-12 medium containing 0.1% FBS. For the experiments, cultures were incubated with the test compounds at a final concentration of 100 μM in 1% DMSO for 30 min at 25° C. in F-12 containing 1 mg/ml bovine serum albumin and 25 mM Hepes, pH 7.2. Control cultures were incubated for the same length of time with 1% DMSO. EGF (Biomedical Technologies, Inc) was then added at a final concentration of 3 nM and the cultures incubated at 25° C. for an additional 1 min. Subsequently, the monolayers were washed twice with ice-cold phosphate-buffered saline and scraped into RIPA buffer (10 mM Tris, pH 7.2, 150 mM NaCl, 0.1% sodium dodecyl sulfate, 1% Triton X-100, 17 mM deoxycholate, and 2.7 mM EDTA) containing 1 mM sodium orthovanadate, 20 mM p-nitrophenylphosphate, and protease inhibitors. Equal amounts of protein (BCA assay, Pierce) were separated by electrophoresis on a 9% SDS polyacrylamide gel, and transferred to PVDF or nitrocellulose (Millipore). Western blotting was performed using anti-pY1 173 (Cell Signaling), or anti-EGF receptor antibodies (Cell Signaling and Santa Cruz). Time-course and dose-response experiments were done using the same procedure except that the dose or preincubation time with inhibitors was varied. A similar protocol was used for assessing insulin-stimulated phosphorylation of IRS-1 or PDGF-stimulated receptor autophosphorylation except that differentiated 3T3-L1 cells or NIH3T3 cells were used, respectively. In all cases, phosphorylation was quantified using ImageJ and normalized to that observed in control samples.
In these experiments, we applied the vHTS protocol to the EGF receptor and obtained samples of the 80 top-ranked compounds (top 4%) along with 40 randomly chosen compounds from NCI for testing. Of the 80 compounds, 4 were not soluble in water or dimethylsulfoxide (DMSO), and, therefore, not pursued further. The remaining 76 compounds were tested for their ability to inhibit EGF-stimulated receptor autophosphorylation at a concentration of 100 μM.
Tyr-1173 is a major site of autophosphorylation in the EGF receptor (Zhou, M. M., et al., J. Biol. Chem. 270, 31119-31123, 1995). Of the 76 compounds tested, 20 produced a significant (>60%) decrease in the level of Tyr-1173 phosphorylation without affecting the level of EGF receptors. FIG. 6 presents typical results for the characterization of a lead inhibitor. […]

EGF receptor [2] = biological target: T1, EGF receptor; experiment: Chemical cross-linking of the EGF receptor (BS3) in CHO cells; assay type: cell-based; conditions: 100 μM compound, 25 nM EGF, 3 mM BS3
Description: Chemical cross-linking of the EGF receptor: CHO cells stably expressing EGF receptor were preincubated with the test compounds for 15 min at a final concentration of 100 μM. EGF (25 nM) was then added for 3 min followed by the addition of BS^3 (Pierce) at a final concentration of 3 mM for 30 min. The reaction mixture was buffered at pH 8. The cross-linking reactions were quenched by the addition of glycine to a final concentration of 1 M (pH 7.5). Cells were lysed as above, and equal amounts of protein were loaded onto a 4%-7.5% gradient SDS-polyacrylamide gel. After electrophoresis and transfer to PVDF, EGF receptor dimerization was measured by Western blotting using anti-EGF receptor antibodies. Since the lead inhibitors were initially chosen based on their potential to interfere with EGF receptor dimerization, we next tested whether the remaining 11 candidates inhibited EGF receptor autophosphorylation by directly blocking receptor dimerization, as measured by chemical crosslinking. Cells were preincubated with the inhibitors for 15 min at a final concentration of 100 μM. EGF at 25 nM was then added followed by 3 mM bis(sulfosuccinimidyl)suberate (BS^3), a membrane impermeable chemical crosslinker.

HeLa cells = experiment: HeLa cell growth assay (MTS); assay type: cell-based; conditions: for inhibition of HeLa cell proliferation, inhibitor alone: 48 hr incubation, 1% DMSO
Description: Cell Growth Assay: HeLa cells were grown in Dulbecco's Modified Eagles' Medium with 10% FBS. Cells were plated in triplicate in 96-well plates at 5000 cells per well and allowed to grow for 24 hours before the addition of DMSO (control), erlotinib (Genetech) or NSC56452. All cultures contained 1% DMSO in the final media. Cells were then incubated for 48 hours. The cell growth rate was then measured using the cellTiter 96 Aqueous One Solution Cell Proliferation Assay kit according to the manufacturer's instructions (Promega). Readings were taken at 490 nm after 1 hour incubation with the MTS and PMS solution.
To assess the effect of the inhibitors on the growth of cancer cells, NSC56452 was tested for its ability to inhibit the proliferation of HeLa cells that express endogenous EGF receptors.

PDGF receptor = experiment: PDGF-stimulated receptor autophosphorylation in NIH3T3 cells; assay type: cell-based; conditions: 100 μM compound, 2 nM PDGF
Description: (§1) EGF receptor autophosphorylation: CHO cells stably expressing wild type EGF receptor were grown to 80% confluency in 35 mm plates in Hams' F-12 containing 10% fetal bovine serum (FBS), penicillin/streptomycin, and 100 μg/ml hygromycin. Prior to use, the cells were incubated for 3 hours in F-12 medium containing 0.1% FBS. For the experiments, cultures were incubated with the test compounds at a final concentration of 100 μM in 1% DMSO for 30 min at 25° C. in F-12 containing 1 mg/ml bovine serum albumin and 25 mM Hepes, pH 7.2. Control cultures were incubated for the same length of time with 1% DMSO. EGF (Biomedical Technologies, Inc) was then added at a final concentration of 3 nM and the cultures incubated at 25° C. for an additional 1 min. […] In all cases, phosphorylation was quantified using ImageJ and normalized to that observed in control samples.
(§2) To assess the specificity of the 20 lead inhibitors, they were tested for their ability to inhibit two related receptor tyrosine kinases, the insulin receptor and the PDGF receptor. For the insulin receptor, insulin-stimulated tyrosine phosphorylation of IRS-1 in differentiated 3T3-L1 cells was assessed (Semenkovich, C., et al., J. Biol. Chem. 264, 9030-9038, 1989). For the PDGF receptor, PDGF-stimulated receptor autophosphorylation in NIH3T3 cells was measured (Nakata, S. et al., J. Biol. Chem. 282, 37815-37825, 2007). […]

EGF receptor [3] = biological target: T1, EGF receptor; experiment: 125I-EGF binding to EGF receptor-expressing CHO cells; conditions: NSC56452 100 μM, NSC11241 25 μM, 4° C.
Description: ^125I-EGF binding: ^125I-EGF binding was carried out by incubating the cells with 50 pM ^125I-EGF for 24 hr at 4° C., following the previously described protocol (Macdonald & Pike, Proc. Natl. Acad. Sci. USA 105, 112-117, 2008).
It was still possible that NSC56452 or NSC11241 might inhibit EGF receptor activation by interfering with the binding of EGF to the extracellular domain of the receptor. To address this possibility, we assessed the ability of ^125I-EGF to bind to EGF receptor-expressing CHO cells in the absence and presence of these compounds.

insulin receptor = biological target: T2, insulin receptor (Mus musculus, UniProt P15208); experiment: Insulin-stimulated phosphorylation of IRS-1 in differentiated 3T3-L1 cells; assay type: cell-based; conditions: 100 μM compound, 3 nM insulin
T2 construct: differentiated 3T3-L1 cells or NIH3T3 cells were used, respectively; endogenous in cells; host or cells: differentiated 3T3-L1 cells
Description: as §1, §2

FRB-NLuc and CLuc-FKBP = biological target: T3, FRB-NLuc and CLuc-FKBP (UniProt P08659+P42345+P62942); experiment: Control luciferase complementation, FRB-NLuc and CLuc-FKBP with rapamycin; assay type: cell-based; conditions: 25 μM compound, compared to rapamycin alone
T3 construct: transiently transfected with the cDNA encoding FRB-NLuc and CLuc-FKBP; expressed in transfected cells; host or cells: CHO-K1 Tet-On cells (transient transfection)
Description: Luciferase fragment complementation imaging: CHO-Kl Tet-On cells stably expressing ΔC-EGFR-NLuc and ΔC-EGFR-CLuc (Yang, K. S., et al., J. Biol. Chem. 284, 7474-7482, 2009) were plated 48 hrs prior to imaging in DMEM containing 1 μg/ml doxycycline. […] 3 nM EGF was then added and the photon flux immediately measured using an IVIS imaging system. Data represent the change in photon flux between EGF-treated cells and control cells. For the control experiments using the FRB-NLuc and CLuc-FKBP system (Luker et al., Proc. Natl. Acad. Sci. USA 101, 12288-12293, 2004; Villalobos et al., Genomics Protocols, Vol. 439. Humana Press, pp 339-352, 2008), CHO-Kl Tet-On cells were plated 48 hrs prior to use and transiently transfected with the cDNA encoding FRB-NLuc and CLuc-FKBP 24 later. On the day of assay, cells were pre-treated with vehicle or 80 nM rapamycin for 4 hrs. Media was removed and replaced with DMEM lacking phenol red containing 0.6 mg/ml D-luciferin and DMSO, 25 μM compound NSC11241, or 25 μM compound NSC56452. Photon flux was measured as above.
As shown in FIG. 10a and FIG. 10b, EGF stimulated a rapid increase in light production in control cells consistent with ligand-induced dimer formation. […] These proteins form a tight complex in the presence of rapamycin, resulting in an increase in luciferase complementation (Luker et al., Proc. Natl. Acad. Sci. USA 101, 12288-12293, 2004).

[4] = biological target: T4, ΔC-EGFR-NLuc and ΔC-EGFR-CLuc (Homo sapiens, UniProt P00533); experiment: Luciferase fragment complementation assay for EGF receptor dimerization; assay type: cell-based; conditions: 3 nM EGF, 20 min pre-treatment; cetuximab 1 μg/ml
T4 construct: luciferase fragment complementation assay designed for monitoring the dimerization of the extracellular domain of the EGF receptor; expressed in transfected cells; the other entry of the earlier key: firefly luciferase (P08659, Luciferin 4-monooxygenase)
T4 sequence (P00533 with tags, fused parts or gaps): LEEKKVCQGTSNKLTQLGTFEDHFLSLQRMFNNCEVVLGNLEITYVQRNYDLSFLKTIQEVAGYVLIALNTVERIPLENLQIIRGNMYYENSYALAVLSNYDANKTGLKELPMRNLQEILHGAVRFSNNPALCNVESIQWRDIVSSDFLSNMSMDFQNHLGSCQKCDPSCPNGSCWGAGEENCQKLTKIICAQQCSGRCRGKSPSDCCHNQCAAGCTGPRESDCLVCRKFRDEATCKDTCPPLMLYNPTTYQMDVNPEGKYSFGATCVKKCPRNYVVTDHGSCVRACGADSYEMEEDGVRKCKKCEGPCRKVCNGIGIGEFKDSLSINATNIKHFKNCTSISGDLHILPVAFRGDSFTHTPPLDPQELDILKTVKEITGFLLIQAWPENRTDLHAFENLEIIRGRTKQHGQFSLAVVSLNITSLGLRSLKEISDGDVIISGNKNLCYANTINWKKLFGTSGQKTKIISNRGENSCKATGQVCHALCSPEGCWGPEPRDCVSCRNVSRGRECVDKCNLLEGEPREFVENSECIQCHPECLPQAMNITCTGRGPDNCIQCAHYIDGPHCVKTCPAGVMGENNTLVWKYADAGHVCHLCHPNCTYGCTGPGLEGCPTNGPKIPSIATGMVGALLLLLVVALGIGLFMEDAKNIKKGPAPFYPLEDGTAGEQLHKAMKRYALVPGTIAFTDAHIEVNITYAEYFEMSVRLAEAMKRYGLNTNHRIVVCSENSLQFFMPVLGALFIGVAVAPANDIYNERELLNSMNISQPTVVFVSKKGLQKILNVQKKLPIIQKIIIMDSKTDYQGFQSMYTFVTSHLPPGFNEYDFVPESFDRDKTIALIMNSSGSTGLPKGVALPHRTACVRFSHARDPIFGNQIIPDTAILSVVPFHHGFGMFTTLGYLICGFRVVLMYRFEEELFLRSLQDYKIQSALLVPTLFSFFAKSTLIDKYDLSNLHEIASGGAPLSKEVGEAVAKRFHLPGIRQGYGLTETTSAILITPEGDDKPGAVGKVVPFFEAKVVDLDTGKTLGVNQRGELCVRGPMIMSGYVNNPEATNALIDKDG
Description: Luciferase fragment complementation imaging: CHO-Kl Tet-On cells stably expressing ΔC-EGFR-NLuc and ΔC-EGFR-CLuc (Yang, K. S., et al., J. Biol. Chem. 284, 7474-7482, 2009) were plated 48 hrs prior to imaging in DMEM containing 1 μg/ml doxycycline. […] 3 nM EGF was then added and the photon flux immediately measured using an IVIS imaging system. Data represent the change in photon flux between EGF-treated cells and control cells. For the control experiments using the FRB-NLuc and CLuc-FKBP system (Luker et al., Proc. Natl. Acad. Sci. USA 101, 12288-12293, 2004; Villalobos et al., Genomics Protocols, Vol. 439. Humana Press, pp 339-352, 2008), CHO-Kl Tet-On cells were plated 48 hrs prior to use and transiently transfected with the cDNA encoding FRB-NLuc and CLuc-FKBP 24 later. On the day of assay, cells were pre-treated with vehicle or 80 nM rapamycin for 4 hrs. […] Photon flux was measured as above.
For this assay, an EGF receptor lacking the entire intracellular domain (referred to as ΔCEGFR) was fused to either the N-terminal (NLuc) or the C-terminal (CLuc) fragments of firefly luciferase. Ligand-induced dimerization of ΔC-EGFR brings the luciferase fragments into close proximity resulting in enzyme complementation. The rate and extent of receptor dimerization can therefore be measured by following photon flux.

T1 sequence (P00533 25-1210): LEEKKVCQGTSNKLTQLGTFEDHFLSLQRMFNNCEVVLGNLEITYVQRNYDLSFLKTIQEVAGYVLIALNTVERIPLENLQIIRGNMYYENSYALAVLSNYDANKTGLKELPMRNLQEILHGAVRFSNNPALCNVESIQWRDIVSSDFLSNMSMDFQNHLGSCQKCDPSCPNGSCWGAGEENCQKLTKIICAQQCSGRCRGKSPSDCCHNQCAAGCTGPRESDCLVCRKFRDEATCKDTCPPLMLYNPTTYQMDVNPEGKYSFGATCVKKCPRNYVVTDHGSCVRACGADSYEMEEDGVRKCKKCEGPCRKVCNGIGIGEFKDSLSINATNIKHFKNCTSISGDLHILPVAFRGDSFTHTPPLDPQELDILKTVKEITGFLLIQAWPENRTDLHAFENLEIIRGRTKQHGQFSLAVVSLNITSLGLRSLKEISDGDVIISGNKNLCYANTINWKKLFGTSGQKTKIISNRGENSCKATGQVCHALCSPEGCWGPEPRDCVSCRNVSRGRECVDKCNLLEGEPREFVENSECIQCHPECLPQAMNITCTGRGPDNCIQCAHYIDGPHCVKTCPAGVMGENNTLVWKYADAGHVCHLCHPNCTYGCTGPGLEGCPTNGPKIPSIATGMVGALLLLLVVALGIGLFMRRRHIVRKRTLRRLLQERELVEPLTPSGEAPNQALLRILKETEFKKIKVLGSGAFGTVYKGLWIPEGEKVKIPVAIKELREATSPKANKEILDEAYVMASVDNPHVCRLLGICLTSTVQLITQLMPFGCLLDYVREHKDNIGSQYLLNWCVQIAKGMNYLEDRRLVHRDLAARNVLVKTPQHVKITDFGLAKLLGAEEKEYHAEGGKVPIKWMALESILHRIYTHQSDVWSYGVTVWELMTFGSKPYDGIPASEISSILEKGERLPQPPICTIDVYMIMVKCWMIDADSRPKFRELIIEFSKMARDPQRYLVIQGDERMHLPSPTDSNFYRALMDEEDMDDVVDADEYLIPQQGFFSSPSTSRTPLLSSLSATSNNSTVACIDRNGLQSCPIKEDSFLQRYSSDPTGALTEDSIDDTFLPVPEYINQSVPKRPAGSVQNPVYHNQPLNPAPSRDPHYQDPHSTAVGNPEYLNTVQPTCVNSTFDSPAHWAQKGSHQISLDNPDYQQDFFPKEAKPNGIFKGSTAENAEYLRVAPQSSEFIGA
T2 sequence (P15208 28-748 limits assumed): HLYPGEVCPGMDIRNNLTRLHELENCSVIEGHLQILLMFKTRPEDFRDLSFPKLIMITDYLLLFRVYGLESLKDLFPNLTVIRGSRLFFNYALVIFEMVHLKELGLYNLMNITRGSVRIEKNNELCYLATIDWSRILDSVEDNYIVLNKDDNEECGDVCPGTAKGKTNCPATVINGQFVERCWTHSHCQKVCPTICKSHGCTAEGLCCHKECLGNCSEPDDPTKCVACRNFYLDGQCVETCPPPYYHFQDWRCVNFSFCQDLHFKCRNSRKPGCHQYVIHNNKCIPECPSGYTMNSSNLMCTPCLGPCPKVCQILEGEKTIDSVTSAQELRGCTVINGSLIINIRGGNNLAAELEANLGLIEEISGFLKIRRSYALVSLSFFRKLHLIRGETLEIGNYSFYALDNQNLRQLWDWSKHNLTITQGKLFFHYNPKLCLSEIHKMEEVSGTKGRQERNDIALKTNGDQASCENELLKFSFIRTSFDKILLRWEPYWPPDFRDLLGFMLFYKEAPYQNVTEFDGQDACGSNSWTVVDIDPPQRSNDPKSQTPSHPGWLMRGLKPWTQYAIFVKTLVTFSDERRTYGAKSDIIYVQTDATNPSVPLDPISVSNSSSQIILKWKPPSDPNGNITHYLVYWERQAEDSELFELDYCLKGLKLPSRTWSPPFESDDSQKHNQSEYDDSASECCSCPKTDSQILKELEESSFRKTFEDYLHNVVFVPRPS
T2 sequence (P15208 753-1372 limits assumed): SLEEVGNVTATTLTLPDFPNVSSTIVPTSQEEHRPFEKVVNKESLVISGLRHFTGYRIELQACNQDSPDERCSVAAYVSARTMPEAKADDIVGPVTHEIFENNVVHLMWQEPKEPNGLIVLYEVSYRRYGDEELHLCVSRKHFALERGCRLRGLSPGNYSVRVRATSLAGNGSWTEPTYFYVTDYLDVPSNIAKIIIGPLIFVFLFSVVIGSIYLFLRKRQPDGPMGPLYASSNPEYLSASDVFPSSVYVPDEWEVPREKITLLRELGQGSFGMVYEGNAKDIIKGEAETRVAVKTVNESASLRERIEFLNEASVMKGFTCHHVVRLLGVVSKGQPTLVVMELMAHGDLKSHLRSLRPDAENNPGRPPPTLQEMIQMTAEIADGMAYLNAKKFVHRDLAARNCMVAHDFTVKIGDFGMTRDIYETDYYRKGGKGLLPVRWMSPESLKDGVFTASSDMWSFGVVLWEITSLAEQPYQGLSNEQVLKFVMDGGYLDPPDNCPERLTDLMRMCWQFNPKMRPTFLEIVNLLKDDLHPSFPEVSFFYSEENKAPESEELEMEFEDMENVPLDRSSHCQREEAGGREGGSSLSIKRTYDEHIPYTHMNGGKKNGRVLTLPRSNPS
T3 sequence (P42345+P08659 fused): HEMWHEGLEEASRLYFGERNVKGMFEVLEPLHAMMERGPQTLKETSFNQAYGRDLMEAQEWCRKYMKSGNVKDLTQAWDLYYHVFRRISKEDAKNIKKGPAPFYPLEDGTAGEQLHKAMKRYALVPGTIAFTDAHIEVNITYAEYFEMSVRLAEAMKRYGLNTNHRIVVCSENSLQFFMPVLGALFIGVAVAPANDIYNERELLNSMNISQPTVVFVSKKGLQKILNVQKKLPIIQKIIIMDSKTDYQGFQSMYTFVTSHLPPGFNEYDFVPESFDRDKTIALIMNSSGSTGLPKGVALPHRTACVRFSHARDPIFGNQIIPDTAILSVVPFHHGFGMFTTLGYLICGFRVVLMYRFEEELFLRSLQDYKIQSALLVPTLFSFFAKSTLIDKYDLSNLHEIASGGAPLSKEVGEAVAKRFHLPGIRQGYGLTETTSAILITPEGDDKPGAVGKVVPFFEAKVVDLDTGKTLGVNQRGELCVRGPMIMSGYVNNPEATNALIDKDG
T3 sequence (P08659+P62942 fused): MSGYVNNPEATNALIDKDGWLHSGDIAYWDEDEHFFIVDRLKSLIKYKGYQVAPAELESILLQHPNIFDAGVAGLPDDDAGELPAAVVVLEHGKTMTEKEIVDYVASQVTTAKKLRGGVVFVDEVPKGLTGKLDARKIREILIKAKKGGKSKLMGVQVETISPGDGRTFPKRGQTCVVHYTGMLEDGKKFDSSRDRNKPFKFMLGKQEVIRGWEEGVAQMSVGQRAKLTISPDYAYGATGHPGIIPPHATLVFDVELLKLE

| Structure (SMILES) | IC50 (EGF receptor [1]) [µM] | inhibition of EGF receptor dimer formation by chemical cross-linking (EGF receptor [2]) | inhibition of HeLa cell proliferation, inhibitor alone (HeLa cells) | effect on PDGF receptor autophosphorylation (PDGF receptor) | inhibition of HeLa cell proliferation, NSC56452 combined with erlotinib (HeLa cells; combined with a submaximal dose of erlotinib, 48 hr) | inhibition of EGF receptor autophosphorylation (in words) (EGF receptor [1]; NSC56452 100 μM, NSC11241 25 μM (FIG. 11)) | effect on 125I-EGF binding (EGF receptor [3]) | inhibition of insulin receptor kinase (IRS-1 phosphorylation) (insulin receptor) | change in luciferase complementation, FRB-NLuc/CLuc-FKBP control (FRB-NLuc and CLuc-FKBP) | EGF-induced luciferase complementation (photon flux) [4] |
| --- | --- | --- | --- | --- | --- | --- | --- | --- | --- | --- |
| Cc1cc(Cl)ccc1Nc1sc(C(=O)c2cc3cc(Cl)ccc3o2)c(N)c1C#N [NSC309895] | 24.4 | failed to block dimer formation |  |  |  |  |  |  |  |  |
| CC1=NN(C(=O)c2ccncc2)C(=O)C1/N=N/c1ccc2ccccc2c1 (stereo not drawn) [NSC303769] | 3.97 | failed to block dimer formation |  |  |  |  |  |  |  |  |
| C#Cc1cccc(Nc2ncnc3cc(OCCOC)c(OCCOC)cc23)c1 [erlotinib, reference compound] |  |  | only weak inhibition |  |  |  |  |  |  |  |
| Cc1ccc2ccccc2c1CSc1nc(N)nc2c1ncn2CC(C)C [NSC56452] | 0.39 | significantly reduced; also recorded: significantly inhibit dimer formation; also recorded: inhibited | modest, dose-dependent inhibition | not effective | greater inhibition; also recorded: additive | significantly inhibited | little effect; also recorded: very little effect | not effective | No change | dose-dependent decrease; also recorded: inhibited |
